Legend:
[1] = test system: beet armyworm (Spodoptera exiqua); assay: whole plant or invertebrate; conditions: 144 h, read-out: percent mortality, BAW
[2] = test system: two spotted spider mite (Tetranychus urticae); assay: whole plant or invertebrate; conditions: 72 h, read-out: percent mortality, TSSM
[3] = test system: cotton aphid (Aphis gossypii); assay: whole plant or invertebrate; conditions: 72 h, read-out: percent mortality, CA
[4] = test system: tobacco budworm (Heliothis virescens); assay: Activity against tobacco budworm (TBW); type: in vivo; conditions: 144 h, read-out: percent mortality, TBW
Experimental: In conducting evaluations of insecticidal activity, each test compound was formulated as a 400 ppm solution, and this solution was then diluted with water to give lesser concentrations. The 400 ppm solution was prepared by combining 19.2 mL of 0.05% solution of Tween 20 (polyoxyethylene (20) sorbitan monolaurate) in water with a solution of 8 mg of the compound in 0.8 mL of acetone/EtOH (9/1).
Activity against tobacco budworm (Heliothis virescens) was evaluated as follows. A general purpose lepidoptera artificial diet was diluted to half strength with a 5% non nutritive agar. 8 mL of this diet material was dispensed into each one ounce diet cup. One hour prior to treatment 18 to 20 eggs were dispensed onto the diet surface. The cups were then sprayed with formulated material through a flat-fan nozzle. The test was run using concentrations of 400 ppm and 50 ppm. Treated cups were air dried prior to sealing with plastic caps. The cups were held for 6 days at room temperature. Activity was then rated based on the total number of live and dead larvae, and on the size of live larvae.

[5] = test system: peanut root knot nematode (Meloidogyne arenaria); assay: whole plant or invertebrate; conditions: in Arachis hypogaea, read-out: percent mortality, RKN
[6] = test system: Southern corn rootworm (Diabrotica undecimpuctata howardi Barber); assay: whole plant or invertebrate; conditions: in Zea mays, soil, read-out: percent mortality, SCRW
[7] = test system: German cockroach (Blattella germanicus); assay: whole plant or invertebrate; conditions: 240 h, read-out: percent mortality, GECR

| Compound | mortality at 400 ppm [1] [%] | mortality at 400 ppm [2] [%] | mortality at 400 ppm [3] [%] | mortality at 400 ppm [4] [%] | mortality at 400 ppm [5] [%] | mortality at 24 µg/g [6] [%] | mortality at 400 ppm [7] [%] |
| --- | --- | --- | --- | --- | --- | --- | --- |
| CCCCCc1ccc(CC(=O)Nc2ccnc(CC)n2)cc1 [Compound 41, 4-pentylphenyl-N-(2-ethyl-4-pyrimidinyl)acetamide] | 100 | 100 | 100 | 40 |  |  |  |
| CCCc1nccc(NC(=O)Cc2ccc(Oc3ccc(F)cc3)cc2)n1 [Compound 19, 4-(4-fluorophenoxy)phenyl-N-(2-propyl-4-pyrimidinyl)acetamide] | 100 | 100 | 100 | 100 | 100 | 100 | 100 |
| CCCCc1nccc(NC(=O)Cc2ccc(Oc3ccc(F)cc3)cc2)n1 [Compound 21, 4-(4-fluorophenoxy)phenyl-N-(2-butyl-4-pyrimidinyl)acetamide] | 100 | 100 | 100 | 100 | 90 | 0 | 100 |
| CCc1nccc(NC(=O)Cc2ccc(OCC(F)(F)C(F)F)cc2)n1 [Compound 43, 4-(2,2,3,3-tetrafluropropoxy)phenyl-N-(2-ethyl-4-pyrimidinyl)acetamide] | 60 | 100 | 100 | 60 |  |  |  |
| O=C(Cc1ccc(OCC(F)(F)F)cc1)Nc1ccnc(C2CCC2)n1 [Compound 22, 4-(2,2,2-trifluroethoxy)phenyl-N-(2-cyclobutyl-4-pyrimidinyl)acetamide] | 100 | 100 | 100 | 0 | 100 | 100 | 80 |
| O=C(Cc1ccc(Oc2ccc(Cl)cc2)cc1)Nc1ccnc(C2CC2)n1 [Compound 29, 4-(4-chlorophenoxy)phenyl-N-(2-cyclopropyl-4-pyrimidinyl)acetamide] | 100 | 100 | 100 | 100 | 0 | 0 | 100 |
| COCc1nccc(NC(=O)Cc2ccc(OCC(F)(F)F)cc2)n1 [Compound 38, 4-(2,2,2-trifluroethoxy)phenyl-N-(2-(methoxymethyl)-4-pyrimidinyl)acetamide] | 0 | 0 | 0 | 0 | 0 | 0 | 0 |
| CCc1nccc(NC(=O)Cc2ccc(Oc3ccccc3)cc2)n1 [Compound 47, 4-phenoxyphenyl-N-(2-ethyl-4-pyrimidinyl)acetamide] | 100 | 100 | 100 | 40 |  |  |  |
| CC(C)c1nccc(NC(=O)Cc2ccc(Oc3ccc(F)cc3)cc2)n1 [Compound 31, 4-(4-fluorophenoxy)phenyl-N-(2-(1-methylethyl)-4-pyrimidinyl)acetamide] | 100 | 100 | 100 | 100 | 0 | 0 | 100 |
| CC(C)c1nccc(NC(=O)Cc2ccc(OCC(F)(F)F)cc2)n1 [Compound 30, 4-(2,2,2-trifluroethoxy)phenyl-N-(2-(1-methylethyl)-4-pyrimidinyl)acetamide] | 100 | 100 | 100 | 90 | 100 | 100 | 80 |
| CCc1nccc(NC(=O)Cc2ccc(Oc3ccc(C(C)=O)cc3)cc2)n1 [Compound 49, 4-(4-acetylphenoxy)phenyl-N-(2-ethyl-4-pyrimidinyl)acetamide] | 100 | 100 | 100 | 40 |  |  |  |
| CCc1nccc(NC(=O)Cc2ccc(-c3ccccc3)cc2)n1 [Compound 40] | 20 | 0 | 60 | 40 |  |  |  |
| CCc1nccc(NC(=O)Cc2ccc(Oc3ccc(S(C)(=O)=O)cn3)cc2)n1 [Compound 36, 4-(5-methylsulfonyl-2-pyridinyloxy)phenyl-N-(2-ethyl-4-pyrimidinyl)acetamide] | 100 | 0 | 40 | 100 | 100 | 0 | 40 |
| CCc1nccc(NC(=O)Cc2ccc(OCC(F)(F)F)cn2)n1 [Compound 35, 5-(2,2,2-trifluoromethoxy)-2-pyridinyl-N-(2-ethyl-4-pyrimidinyl)acetamide] | 100 | 100 | 100 | 60 | 100 | 100 | 80 |
| CCCCOc1ccc(CC(=O)Nc2ccnc(CC)n2)cc1 [Compound 44, 4-butoxyphenyl-N-(2-ethyl-4-pyrimidinyl)acetamide] | 100 | 90 | 100 | 0 |  |  |  |
| CC(C)c1nccc(NC(=O)Cc2ccc(Oc3ccc(C(F)(F)F)cc3)cc2)n1 [Compound 72, 4-(4-trifluoromethylphenoxy)phenyl-N-(2-(1-methylethyl)-4-pyrimidinyl)acetamide] | 0 | 100 | 100 | 100 | 100 | 100 | 100 |
| CCc1nccc(NC(=O)Cc2ccc(Oc3ccc(Cl)cn3)cc2)n1 [Compound 37, 4-(5-chloro-2-pyridinyloxy)phenyl-N-(2-ethyl-4-pyrimidinyl)acetamide] | 100 | 0 | 0 | 100 | 0 | 0 | 100 |
| CCc1nccc(NC(=O)Cc2ccc(Oc3ccc(Cl)cc3)cc2)n1 [Compound 17, 4-(4-chlorophenoxy)phenyl-N-(2-ethyl-4-pyrimidinyl)acetamide] | 100 | 100 | 100 | 100 | 100 | 100 | 100 |
| CCc1nccc(NC(=O)COc2ccc(C(C)C)cc2)n1 [Compound 46, 4-(1-methylethyl)phenoxy-N-(2-ethyl-4-pyrimidinyl)acetamide] | 0 | 0 | 0 | 0 |  |  |  |
| O=C(Cc1ccc(Oc2ccc(F)cc2)cc1)Nc1ccnc(C2CCC2)n1 [Compound 23, 4-(4-fluorophenoxy)phenyl-N-(2-cyclobutyl-4-pyrimidinyl)acetamide] | 100 | 100 | 100 | 100 | 100 | 0 | 100 |
| CCc1nccc(NC(=O)Cc2ccc(C(C)C)cc2)n1 [Compound 45, 4-(1-methylethyl)phenyl-N-(2-ethyl-4-pyrimidinyl)acetamide] | 100 | 100 | 100 | 0 |  |  |  |
| CC(C)(C)c1nccc(NC(=O)Cc2ccc(Oc3ccc(F)cc3)cc2)n1 [Compound 25, 4-(4-fluorophenoxy)phenyl-N-(2-(1,1-dimethylethyl)-4-pyrimidinyl)acetamide] | 100 | 100 | 100 | 100 | 100 | 100 | 100 |
| CCc1nccc(NC(=O)Cc2ccc(OC(F)F)cc2)n1 [Compound 42, 4-difluromethoxy-N-(2-ethyl-4-pyrimidinyl)acetamide] | 40 | 100 | 100 | 0 |  |  |  |
| CCc1nccc(NC(=O)Cc2ccc3ccccc3c2)n1 [Compound 50, 2-naphthyl-N-(2-ethyl-4-pyrimidinyl)acetamide] | 60 | 100 | 100 | 40 |  |  |  |
| CCc1nccc(NC(=O)Cc2ccc(C(C)(C)C)cc2)n1 [Compound 48, 4-(1,1-dimethylethyl)phenyl-N-(2-ethyl-4-pyrimidinyl)acetamide] | 0 | 100 | 100 | 20 |  |  |  |

Reference: US5556859A, “N-(4-pyrimidinyl)amide pesticides” (DowElanco, priority 1994, dated 1996)
